Measurements published in the supplement of paper PMC11451515.

Tested on: P12-Ichikawa
Experiment: cell viability relative to DMSO control; higher = less cytotoxic
Details: 48 h
Method in brief: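 NOMO1 or SEM cells were plated at 500 cells/well and P12-Ichikawa cells at 1000 cells/well in 1536-well plates (5 μl), after each leukemia line had been adapted for at least four passages in each medium. Pin dosing delivered library compounds in DMSO at 11 threefold concentrations, 47 μM to 0.79 nM. CellTiter-Glo One luminescence was read after 48 h at 37°C. Viability is reported as a per-plate percentage of DMSO wells, with cell-free wells as background.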

SMILES | cell viability (HPLM + 10% dialyzed FBS, 0.000781 µM) [%] | cell viability (HPLM + 10% dialyzed FBS, 0.00234 µM) [%] | cell viability (HPLM + 10% dialyzed FBS, 0.00702 µM) [%] | cell viability (HPLM + 10% dialyzed FBS, 0.0211 µM) [%] | cell viability (HPLM + 10% dialyzed FBS, 0.0632 µM) [%] | cell viability (HPLM + 10% dialyzed FBS, 0.19 µM) [%] | cell viability (HPLM + 10% dialyzed FBS, 0.569 µM) [%] | cell viability (HPLM + 10% dialyzed FBS, 1.71 µM) [%] | cell viability (HPLM + 10% dialyzed FBS, 5.12 µM) [%] | cell viability (HPLM + 10% dialyzed FBS, 15.4 µM) [%] | cell viability (HPLM + 10% dialyzed FBS, 46.1 µM) [%] | cell viability (RPMI 5 mM glucose + 10% dialyzed FBS, 0.000781 µM) [%] | cell viability (RPMI 5 mM glucose + 10% dialyzed FBS, 0.00234 µM) [%] | cell viability (RPMI 5 mM glucose + 10% dialyzed FBS, 0.00702 µM) [%] | cell viability (RPMI 5 mM glucose + 10% dialyzed FBS, 0.0211 µM) [%] | cell viability (RPMI 5 mM glucose + 10% dialyzed FBS, 0.0632 µM) [%] | cell viability (RPMI 5 mM glucose + 10% dialyzed FBS, 0.19 µM) [%] | cell viability (RPMI 5 mM glucose + 10% dialyzed FBS, 0.569 µM) [%] | cell viability (RPMI 5 mM glucose + 10% dialyzed FBS, 1.71 µM) [%] | cell viability (RPMI 5 mM glucose + 10% dialyzed FBS, 5.12 µM) [%] | cell viability (RPMI 5 mM glucose + 10% dialyzed FBS, 15.4 µM) [%] | cell viability (RPMI 5 mM glucose + 10% dialyzed FBS, 46.1 µM) [%]
CCn1c(-c2nonc2N)nc2cncc(CNC3CCNCC3)c21 | 122 | 123 | 123 | 123 | 130 | 129 | 117 | 104 | 88.6 | 10.1 | 13.7 | – | – | – | – | – | – | – | – | – | – | –
C[C@@H]1CN[C@H]2[C@@H](C)[C@@]\3(CC[C@H]\4[C@@H]5C/C=C6/C[C@@H](O)CC[C@]6(C)[C@H]5CC4=C3C)O[C@@H]2C1 | – | – | – | – | – | – | – | – | – | – | – | 119 | 125 | 123 | 121 | 124 | 115 | 114 | 114 | 109 | 101 | 93.1
